Several values for one entry are separate records, joined by “and”; a condition that tells them apart may be missing. Equal entries are not always repeated.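 Cells were grown in 96-well plates and exposed to each compound for 48 hours at five concentrations; endpoints were interpolated linearly between bracketing concentrations, or set to the highest concentration if not reached. Abbreviation: GI50, concentration required for 50% inhibition of growth. At the TGI there is no net growth.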
Tests used:
Assay in all cases: DTP human tumour cell line panel, 48 h
[1] = tested on: K-562 leukemia
[2] = tested on: SF-268 CNS
[3] = tested on: NCI/ADR-RES ovarian
[4] = tested on: EKVX NSCLC
[5] = tested on: SNB-75 CNS
[6] = tested on: MDA-N
[7] = tested on: HOP-62 NSCLC
[8] = tested on: SF-539 CNS
[9] = tested on: NCI-H460 lung
[10] = tested on: OVCAR-5 ovarian

Row | Structure (SMILES) | TGI [1] [µM] | TGI [2] [µM] | TGI [3] [µM] | TGI [4] [µM] | TGI [5] [µM] | TGI [6] [µM] | TGI [7] [µM] | TGI [8] [µM] | TGI [9] [µM] | TGI [10] [µM] | GI50 [5]
1 | COc1ccc(N2C(=O)CC(C3CC(C(C)(C)C)CCC3=O)C2=O)cc1 (stereo unspecified) | > 100 | > 100 | > 100 | > 100 | > 100 | > 100 | > 100 | > 100 | > 100 |  | 
2 | Nc1c2c(nc3cc(F)c(F)cc13)CCC2 | > 100 | > 100 | > 100 | > 100 | > 100 | > 100 | > 100 | > 100 | 54 | > 100 | 
3 | N#Cc1c(-c2ccc(Cl)cc2)c2c([nH]c1=O)-c1ccccc1SC2 | > 100 | > 100 | > 100 | 70.8 | 69.5 | > 100 | > 100 | 68 | > 100 | > 100 | 
4 | COc1cc(OC)c(-c2ccc(OCc3ccccc3)c3c(OC)cc(C)cc23)c2c1C(C)=N[C@H](C)C2 | 3.43 | 3.56 | 3.92 | 4.39 | 4.04 | 4 | 4.16 | 4.32 | 3.84 | 4.44 | 
5 | O=C1NC(NNc2ccccc2)=N/C1=C\c1ccccc1O | > 100 | > 100 | > 100 | > 100 | > 100 | > 100 | > 100 | > 100 | > 100 | > 100 | 
6 | NC1CC(=O)c2c(Br)csc21 (stereo unspecified) | > 100 | > 100 | > 100 | > 100 | > 100 | > 100 | > 100 | > 100 | > 100 | > 100 | 
7 | O=c1cc(N2CCOCC2)[nH]c(=O)n1-c1ccc(F)cc1 | > 100 | > 100 | > 100 | > 100 | > 100 | > 100 | > 100 | > 100 | > 100 | > 100 | 
8 | COc1cc(C(=O)n2c3ccc(Br)cc3c3nc4ccccc4nc32)cc(OC)c1OC | > 100 | > 100 | > 100 | > 100 | > 100 | > 100 | > 100 | > 100 | > 100 | > 100 | 
9 | OCCCCCCCCCCCOc1ccc(C2OCC3(CO2)COC(c2ccc(OCCCCCCCCCCCO)cc2)OC3)cc1 (stereo unspecified) | > 50 | > 50 | > 50 | > 50 | > 50 | > 50 | > 50 | > 50 | > 50 | > 50 | 
10 | CC(=O)O[C@H]1C[C@H]2[C@@H](OC(C)=O)/C=C3\C[C@](C)(C(=O)[C@H](O)C(=C1C)C2(C)C)[C@@H](O)C[C@@H]3OC(=O)[C@H](O)[C@H](c1ccccc1)N(C)C | > 100 | > 100 | > 100 | > 100 | > 100 | > 100 | > 100 | > 100 | > 100 | > 100 | 
11 | CN(Cc1cnc2nc(N)nc(N)c2n1)c1ccc(C(=O)NC(CCC(=O)NCCC(P(=O)(O)O)P(=O)(O)O)C(=O)O)cc1 (stereo unspecified) | > 100 | > 100 | > 100 | > 100 | > 100 | > 100 | > 100 | > 100 | > 100 | > 100 | 
12 | C1C2CC3CC1CC(Nc1nc(NC45CC6CC(CC(C6)C4)C5)nc(NC45CC6CC(CC(C6)C4)C5)n1)(C2)C3 | > 100 | > 100 | > 100 | > 77.5 | > 79.2 | > 100 | > 100 | > 100 | > 100 | > 100 | 
13 | COc1ccc(N2C(=O)C(=O)N(c3ccccc3[N+](=O)[O-])C2=S)cc1 | > 100 | > 100 | 64.2 | > 100 | > 100 | 74.2 | > 100 | 88.3 | > 100 | 63.4 | 
14 | O=C(O)CC1NC(/C(=C/c2ccccc2)NC(=O)c2ccccc2)OC1=O (stereo unspecified) | 56 | > 100 | 56.4 | > 100 | 74 | 86.4 | 37.2 | 44.2 | 69.6 | > 100 | 
15 | CN1CCN(C(=O)CCNC(=O)Cc2ccc(C(=O)c3ccccc3)cc2)CC1 | > 100 | > 100 | > 100 | > 100 | > 100 | 71.5 | > 100 | > 100 | > 100 | > 100 | 
16 | C=C1C(=O)C[C@H]2C(=C)C(=O)O[C@@H]2C2C1CC[C@@]2(C)O (stereo partly specified) | > 100 | > 100 | 64.2 | > 100 | > 100 | 77.8 | > 100 | > 100 | 43.1 | > 100 | 
17 | CC(C)CC1C(=O)NCCC(NC(=O)C(Cc2ccc(OC(C)(C)C)cc2)NC(=O)OC(C)(C)C)C(=O)NC(Cc2ccccc2)C(=O)NC(Cc2ccccc2)NC1=O (stereo unspecified) | 10.3 | 36.1 | > 100 | 39.1 |  | > 100 | 37.7 | 44.9 | 15 | 21.2 | 
18 | COc1cc(/C=C2\C[C@H]3[C@@H]4CCc5cc(O)ccc5[C@H]4CC[C@]3(C)C2=O)cc(OC)c1OC | 24.8 | 24 | 39.5 | 23.7 | 26.4 | 62.3 | 27.9 | 90.5 | > 100 | 38.6 | 
19 | COC(=O)CC(C#N)(OP1(=O)OC(c2ccccc2)C(C)N1C)c1ccccc1 (stereo unspecified) | 78.7 | > 100 | > 100 | 60.3 | > 100 | 75.4 | > 100 | > 100 | 44.4 | 69.6 | 
20 | C[N+](CCCl)(CCCl)Cc1cccc2cccc([N+](=O)[O-])c12 | > 100 | > 100 | > 100 | > 100 | > 100 | > 100 | > 100 | > 100 | > 100 | > 100 | 
21 | Cc1cc(C)nc(NC(=O)c2ccc(Br)s2)c1 | > 100 | > 100 | > 100 | > 100 | > 100 | > 100 | > 100 | > 100 | > 100 | 62.4 | 

Row | Structure (SMILES) | TGI [1] [µM] | TGI [2] [µM] | TGI [3] [µM] | TGI [4] [µM] | TGI [5] [µM] | TGI [6] [µM] | TGI [7] [µM] | TGI [8] [µM] | TGI [9] [µM] | TGI [10] [µM] | GI50 [5]
22 | O=C(C=P(c1ccccc1)(c1ccccc1)c1ccccc1)c1ccc(-c2cccc([N+](=O)[O-])c2)s1 | > 100 | > 100 | > 100 | > 100 | 76.3 | > 100 | > 100 | > 100 | > 100 | > 100 | 
23 | O=C1NC(=O)C(c2c[nH]c3ccccc23)=C1c1cnc[nH]1 | > 100 | > 100 | > 100 | > 100 | > 100 | > 100 | > 100 | > 100 | > 100 | > 100 | 
24 | CCOC(=O)c1c(NC(=O)c2cccs2)sc2c1CCCC2 | > 100 | 73.6 | > 100 | > 100 | 81.8 | > 100 | 55.3 | 57.4 | > 100 | > 100 | 
25 | C/C(=N\NC(=S)N1CCCCC1)c1nc2ncccc2[nH]1 | 43.7 | > 100 | > 100 | 98.2 | > 100 | 47.9 | > 100 | 21.3 | 49.8 | 76.4 | 
26 | CCCCc1c(N(C)C)c(OC(C)=O)c(-c2cn(C)c3ccccc23)oc1=O |  | 88.9 | 56.3 | > 100 | 86 | 44.8 | 55.7 | 47.5 | > 100 | > 100 | 
27 | COC(=O)C1=C(C)NC2=C(C(=O)c3ccccc32)C1c1cn(-c2ccccc2)nc1-c1ccccc1 (stereo unspecified) | > 100 | > 100 | > 100 | > 100 | > 100 | > 100 | > 100 | > 100 |  | > 100 | 
28 | CC(=O)N(C)c1ccc(Nc2cc(C)[nH]c3ccc4ncnc4c23)cc1 | 74 | 38.7 | 453 | 50.5 | 30 | 23.9 | 23.5 | 18.6 | 12.3 | 29.4 | 
29 | CC1=CC(C)C/C=C/C2C3OC3(C)C(C)C3C(Cc4c[nH]c5ccccc45)NC(=O)C23C(=O)C=CC(=O)C1O (stereo unspecified) | > 100 | 40.7 | 68.2 | 14.7 | 8.44 | 22.6 | 26.7 | 29.8 | 27.6 | 27.5 | 
30 | CC(C)(Br)C(Br)CCC1(C2CO2)CO1 (stereo unspecified) | > 5 | > 5 | > 5 | > 5 | > 5 | > 5 | > 5 | > 5 |  |  | 
31 | Cc1cc(C)n(C(=C(C(Cl)=C(Cl)Cl)[N+](=O)[O-])n2nc(C)cc2C)n1 | 5 | 16.7 | 20.5 | 6.27 | 18.1 | 13.8 | 19.5 | 16.4 | 12.7 | 22.8 | 
32 | CCCn1c2ccccc2c2ccc3c(c21)C(=O)C=CC3=O | 2.24 | > 10 | > 6.93 | > 7.95 | > 10 | 6.43 | > 10 | > 6.41 | > 10 | > 10 | 
33 | CC(=O)Nc1ccc(N2C(=O)/C(=C\c3cccc(Oc4ccccc4)c3)S(=O)(=O)C2c2ccccc2)cc1 (stereo unspecified) | > 100 |  | > 100 | > 100 | > 100 | 95.3 | > 100 | 62.5 | > 100 | > 100 | 
34 | Nc1ccc(-c2nc3cc(F)ccc3s2)cc1Cl | > 100 | > 100 | > 100 | > 48.2 | 51.8 | > 100 | 46.8 | 45.1 | 25 | 28.8 | 
35 | COC(=O)c1ccc(C(=O)NC(Cc2ccc(Oc3cc(CC(NC(=O)c4ccccc4C(=O)OC)C(=O)OC)ccc3OC)cc2)C(=O)OC)cc1 (stereo unspecified) | > 100 | > 100 | > 100 | > 100 | > 100 | > 100 | > 100 | > 100 | > 100 | > 100 | 
36 | Nc1ncnc2c1ccn2C/C=C\CO | > 100 | > 100 | > 100 | > 100 | > 100 | > 100 | > 100 | > 100 | > 100 | > 100 | 
37 | CC1(c2cccs2)CC(c2cccs2)=C(C#N)C(=C(C#N)C#N)N1 (stereo unspecified) | > 100 | 35.9 | 49.5 | 33.6 | 33.2 | 31.1 | 39.7 | 70 | 43.9 | 39.3 | 
38 | CCCCC1=NNC(=O)C1 |  |  | > 100 | > 100 | > 100 | > 100 | > 100 | > 100 | > 100 | > 100 | 
39 | COCC1OC(Sc2ccccc2)C(O)C(OC)C1OC (stereo unspecified) | > 100 | > 100 | > 100 | > 100 | > 100 | > 100 | > 100 | > 100 | > 100 | > 100 | > 100 µM and 10.1 µM
40 | COc1ccccc1/C(=N\OCCC(=O)O)c1cccs1 | > 100 | > 100 | > 100 | > 100 | > 100 | > 100 | > 100 | > 100 | > 100 | > 100 | 
41 | CC(=O)c1ccc(NCc2cc(O)ccc2O)cc1 | > 100 |  | > 100 | > 100 | 28 | 43.5 | 42 | 33 | 39.9 | 44.2 | 
42 | OC1[C@@H]2[C@@H](O)[C@H](O)[C@@H](O)N2C[C@@H]1O (stereo partly specified) | > 100 | > 100 | > 100 | > 100 | > 100 | > 100 | > 100 | > 100 | > 100 | > 100 | 

— PubChem BioAssay (NCI)
